In publication PMC10267100 (Communications Biology, 2023):

Columns and labels:
[1] = system: WT M1 parental cells (M1 murine myeloid leukemic cell line); assay: IL-6 dose response (differentiation) in WT M1 cells; format: cell-based; conditions: IL-6 dose response, Fig. 1a, approximate
Excerpt: (§1) The M1 murine myeloid leukemic cell line responds in a dose-dependent manner to IL-6 stimulation. Culturing M1 cells in IL-6 results in differentiation from monocytic-like progenitor cells into terminally differentiated macrophages that undergo cell death. […] This was in contrast to five other phosphatases that were similarly overexpressed. Using an Incucyte growth assay, the growth of wild-type M1 cells was compared to that of M1 cells overexpressing HALO-PTP1B both with and without IL-6 (Fig. 1b). […] As expected, there was no difference in the growth rate of any of these cell lines in the absence of IL-6. […] To confirm that the activation loop of the JAKs are indeed a target of PTP1B, dephosphorylation assays with activated recombinant JAK kinase domains were performed in vitro. All four members of the JAK family were dephosphorylated in a PTP1B-dependent manner although JAK1 was dephosphorylated to a lesser extent than others (Fig. 1c).
Fig. 1 PTP1B dephosphorylates the JAK activation loops. a IL-6 dose response curves for phosphatases overexpressed in the M1 cell line. […] (Top) Immunoblot (IB) probing for phosphorylated-JAK (P-JAK1 antibody) activation loop. (Bottom) Ponceau stained membrane to confirm equal input of proteins on gel. Data are representative of 3 independent experiments. d Overexpression of FLAG-JAK and HALO-PTP1B in HEK293T cells. […]

[2] = system: M1 cells overexpressing PTP1B; assay: IL-6 dose response (differentiation) in M1 cells overexpressing PTP1B; format: cell-based, murine; conditions: IL-6 dose response, Fig. 1a, approximate
Excerpt: as §1, with “1c). […]” for “1c).”
Murine PTP1B with an N-terminal Halo tag was sub-cloned into the Tet-On pfTRE3G expression vector for generation of a stable doxycycline-inducible Halo-mPTP1B expressing HEK293T cell line. […] 24 h post-transfection, cells were lysed in sample reducing buffer and analysed by SDS-PAGE and immunoblot as above (dephosphorylation assays). […]

IL-6: cytokine used to stimulate M1 cells
EC50 of IL-6 (induction of differentiation) [1]: ~2 ng/mL | EC50 of IL-6 (induction of differentiation) [2]: approximately 10 ng/mL
